{"source": "patent US11845774B2", "about": "“Sterol derivatives and preparation method and uses thereof” (BEIJING PEKING UNIVERSITY WBL BIOTECH CO., LTD., priority 2011, dated 2023)", "molecular_target": "T1, Porcine pancreatic lipase (Sus scrofa, UniProt P00591)", "T1 construct": "purchased Sigma", "T1 sequence (P00591 1-450)": "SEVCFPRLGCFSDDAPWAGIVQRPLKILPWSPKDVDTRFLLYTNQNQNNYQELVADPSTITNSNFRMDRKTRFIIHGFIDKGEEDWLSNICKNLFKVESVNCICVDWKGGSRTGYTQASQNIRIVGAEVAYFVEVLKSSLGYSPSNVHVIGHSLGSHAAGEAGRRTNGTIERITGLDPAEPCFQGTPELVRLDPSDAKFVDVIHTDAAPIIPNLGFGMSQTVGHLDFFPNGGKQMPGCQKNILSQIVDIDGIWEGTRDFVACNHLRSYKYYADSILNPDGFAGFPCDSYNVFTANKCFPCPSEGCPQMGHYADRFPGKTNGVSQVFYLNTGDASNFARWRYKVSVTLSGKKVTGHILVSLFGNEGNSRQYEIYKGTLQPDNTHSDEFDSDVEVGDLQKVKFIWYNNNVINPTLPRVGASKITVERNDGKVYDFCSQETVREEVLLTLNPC", "experiment": "Test of activity of inhibiting lipase (copper oleate colorimetry, olive oil substrate)", "assay_type": "biochemical, pig", "conditions": "for Absorbance: 714 nm, blank control 0.6680; for Enzyme activity: blank control 1.69; for Concentration of generated oleic acid: blank control 2.75", "experimental": "2.1 Preparation of light absorbance working curve for fatty acid: a series of oleic acid-toluene solutions with different concentrations (0-3.5 mmol/L, separately being 0, 0.225, 0.45, 0.675, 0.9, 1.125, 1.35, 1.8, 2.25, 2.7, and 3.5 mmol/L), 4 mL of each was taken and placed in conical flask, added with 1 mL of color developing agent, stirred with magnetic force for 3 minutes, oleic acid molecules and copper ions formed a green complex compound, after centrifugation, organic phase of upper layer was taken and measured at 714 nm to determine light absorbance.\n2.2 Enzyme solution was 0.5 mg/mL pancreatic lipase solution; buffer solution was 0.07M NaH2PO4—K2HPO4 phosphate buffer solution (pH 7.0); color developing agent was 5% copper acetate solution, which was regulated with pyridine to have pH 6.1.\n3 mL of 0.07M phosphate buffer solution and 1 mL of olive oil were pre-heated at a constant temperature of 37° C. for 5 minutes in water bath under agitation with a magnetic stirrer, added with 1.3 mL of enzyme solution (negative control was that without enzyme inhibitor; positive control is that added with 100 μL of 0.1 mg/mL orlistat solution; […]), stirred with magnetic force for 10 minutes, immediately added with 8 mL of toluene, stirred continuously for 2 minutes, the reaction was terminated, the generated oleic acid was extracted. The solutions were transferred to centrifuge tube, centrifuged under 4000 rpm for 10 minutes, and the organic phase and water phase were layered and clarified. 4 mL of the upper layer organic phase was taken and placed in a small conical flask, added with 1 mL of color developing agent, stirred with magnetic stirrer for 3 minutes, the generated oleic acid reacted with copper ions to form green complex compound. After centrifugation under 4000 rpm for 10 minutes, the upper layer of toluene solution containing copper oleate was taken, and measured with a spectrophotometer at 714 nm to determine its light absorbance. A blank solution without lipase was prepared as control by the same method, and concentration of fatty acid could be determined by referring to light absorbance working curve of oleic acid.\nEnzyme activity unit of lipase was defined as follows: an enzyme amount to release 1 μmol fatty acid under certain condition was defined as 1 unit of lipase activity (U).\nThe following formula was used to calculate enzyme activity: X=(cV)/(tV′)\nwherein: X represents enzyme activity of lipase, U/mL; c represents concentration of fatty acid, […]; V represents volume of fatty acid solution, mL; V′ represents amount of enzyme solution, mL; t represents action time, minute. Inhibition rate=[(enzyme activity of lipase−enzyme activity of lipase after inhibition)/enzyme activity of lipase]×100%", "key": {"[1]": {"conditions": "final concentration of inhibitor in the system 111 μg/mL"}, "[2]": {"conditions": "final concentration of inhibitor in the system 166 μg/mL"}, "[3]": {"conditions": "final concentration of inhibitor in the system 203 μg/mL"}, "[4]": {"conditions": "final concentration of inhibitor in the system 240 μg/mL"}, "[5]": {"conditions": "final concentration of inhibitor in the system 333 μg/mL"}}, "data": [{"smiles": "C[C@@H](C(O)C1OC2C[C@H]3C4=CC=C5CC(O)CC[C@]5(C)[C@H]4CC[C@]3(C)[C@H]2[C@@]1(C)O)C(C)(C)O", "note": "(stereo partly drawn) [Compound of Formula II, 16,22-epoxy-ergosta-5,7-dien-3,20,23,25-tetraol]", "values": [{"measurement": "Absorbance", "setting": "[1]", "result": 0.5665}, {"measurement": "Absorbance", "setting": "[2]", "result": 0.5035}, {"measurement": "Absorbance", "setting": "[3]", "result": 0.3998}, {"measurement": "Absorbance", "setting": "[4]", "result": 0.2743}, {"measurement": "Absorbance", "setting": "[5]", "result": 0.2611}, {"measurement": "Inhibition rate", "setting": "[1]", "result": 15.38, "unit": "%"}, {"measurement": "Enzyme activity", "setting": "[1]", "result": 1.43, "unit": "U/mL"}, {"measurement": "Concentration of generated oleic acid", "setting": "[1]", "result": 2.32, "unit": "mM"}, {"measurement": "Inhibition rate", "setting": "[2]", "result": 24.85, "unit": "%"}, {"measurement": "Enzyme activity", "setting": "[2]", "result": 1.27, "unit": "U/mL"}, {"measurement": "Concentration of generated oleic acid", "setting": "[2]", "result": 2.06, "unit": "mM"}, {"measurement": "Inhibition rate", "setting": "[3]", "result": 40.83, "unit": "%"}, {"measurement": "Enzyme activity", "setting": "[3]", "result": 1.00, "unit": "U/mL"}, {"measurement": "Concentration of generated oleic acid", "setting": "[3]", "result": 1.63, "unit": "mM"}, {"measurement": "Inhibition rate", "setting": "[4]", "result": 59.76, "unit": "%"}, {"measurement": "Enzyme activity", "setting": "[4]", "result": 0.68, "unit": "U/mL"}, {"measurement": "Concentration of generated oleic acid", "setting": "[4]", "result": 1.10, "unit": "mM"}, {"measurement": "Inhibition rate", "setting": "[5]", "result": 62.13, "unit": "%"}, {"measurement": "Enzyme activity", "setting": "[5]", "result": 0.64, "unit": "U/mL"}, {"measurement": "Concentration of generated oleic acid", "setting": "[5]", "result": 1.04, "unit": "mM"}, {"measurement": "IC50", "setting": "read-out: IC50 value, inhibition of activity of lipase (converted)", "result": "~478", "unit": "µM"}]}]}
